Like-named read-outs stand apart in the source and are kept apart here.
Assays:
[1] = Biodistribution in estradiol-primed or unprimed female Sprague-Dawley rats; assay type: in vivo, rat
Method: Four groups of rats (150-200 gm, N=4/group) were anesthetized with ketamine (10-15 mg/rat). […]. Tissue uptake of ^18 F-tracer was determined at 2 and 4 hours (h). To ascertain whether the ^18 F-tracer uptake was mediated by a receptor-process, one group of rats was given ^18 F-tracer without priming with estradiol; and another group of rats was given unlabeled estradiol (30 μg/rat) together with ^18 F-tracer. […].
The inventors first determined the in vivo tissue distribution of [^18 F-FTX] in rats. Specifically, four groups of female Sprague-Dawley rats (N=4/group, 200-250 gm; obtained from Harlan Inc., Indianapolis, Ind.) were anesthetized with ketamine (10-15 mg/rat). […]. The tissue distribution was studied at 2 hour and 4 hour intervals.

uterus and ovaries = assay: PET imaging of pig uterus and ovaries and blood clearance in pigs; assay type: in vivo; conditions: for Uterus/ovary uptake in PET image (in words): 1 h postinjection
Method: PET imaging was performed on four domestic female pigs (30 lb) with a positron camera (Positron Corporation, Houston, Tex). Each pig was supine in the scanner so that the detector rings would span the entire pelvic region. Prior to scanning, the position of the uterus and ovaries was determined by hysterosalpingography. Fifteen milliliters of radiopaque (Renografin 76 Squibb Diagnostic, New Brunswick, N.J.) was injected through the vagina into the uterus via a 5 Fr catheter with the balloon inflated by 1 ml of air. Radiographs of the pelvis in the anterior-posterior projection were taken. The location of the uterus was marked permanently on the skin of each pig for positioning in the PET camera.
A 20 min attenuation scan was performed with a 4 mCi ^68 Ge-ring source prior to tracer injection. After each pig received 10 mCi of [^18 F]FTX, […] consecutive 10 min scans were acquired. There was a 5 min wait between scans for data transfer. […] In order to examine the blood clearance profile of [^18 F]FTX, venous blood samples (0.5 ml) were collected every minute for the first ten minutes, followed by every ten minutes up to two hours. Serial transaxial images of the pelvic region were performed in order to view the uterus. The tomograph has a field-of-view of t42 cm on transverse and 12 cm on coronal planes. The axial resolution on the reconstructed plane is 1.2 cm.

[2] = Biodistribution in mammary tumor-bearing rats primed with estradiol; assay type: in vivo, rat; conditions: for tissue uptake at 1 h / tissue uptake at 3 h / tissue uptake at 6 h / tissue uptake at 24 h: rat, iv
Method: Female Fisher 344 rats (250-275 g) (Harlan, Inc., Indianapolis, Ind.) were inoculated with mammary tumor cells using the 13762 tumor cell line (s.c. 10^5 cells/rat). After 14 days, a tumor size of 1-2 cm was observed. For ^131 I-ITX studies, five groups of rats (N=3/group) were anesthetized with ketamine (10-15 mg/rat). […] In blocking studies, the fifth group of rats was given diethylstilbestrol (DES) (1.2 mg/rat) for 1 h, followed by 8.9 μCi of ^131 I-ITX; biodistribution was studied 6 h later. The tissues were collected at different time intervals. The tissues were weighted and counted for radioactivity. The percent of injected dose per gram of tissue weight was calculated.
[…]. The biodistribution studies were conducted at 1, 3, 6 and 24 h.

[3] = 2 h, blocked with estradiol 30 μg, listed as 18 Ftracer, 120 min
[4] = 2 h, blocked with estradiol 30 μg, listed as N,N-DIETHYL-[^18 F]FLUOROMETHYLTAMOXIFEN, 120 min
[5] = 2 h, estradiol-primed, listed as 18 Ftracer, 120 min
[6] = 2 h, not primed, listed as 18 Ftracer, 120 min
[7] = 2 h, not primed, listed as N,N-DIETHYL-[^18 F]FLUOROMETHYLTAMOXIFEN, 120 min
[8] = 4 h, estradiol-primed, listed as 18 Ftracer, 240 min

With `CCN(CC)CCOc1ccc(/C(=C(/CCC[18F])c2ccccc2)c2ccccc2)cc1` [[^18 F]FTX, (trans)[^18 F]Fluoromethyl-N,N-diethyltamoxifen] the Blood uptake [1, 3] was 0.048 % OF INJECTED DOSE/GRAM OF TIS, the Bone uptake [1, 3] was 0.576 % OF INJECTED DOSE/GRAM OF TIS and the Intestine uptake [1, 3] was 0.742 % OF INJECTED DOSE/GRAM OF TIS. The Liver uptake [1, 3] was 4.451 % OF INJECTED DOSE/GRAM OF TIS, the Muscle uptake [1, 3] was 0.145 % OF INJECTED DOSE/GRAM OF TIS and the Uterus uptake [1, 3] was 0.297 % OF INJECTED DOSE/GRAM OF TIS. The Blood uptake [1, 4] was 0.048 % OF INJECTED DOSE/GRAM OF TISSUE WEIGHT, the Bone uptake [1, 4] was 0.576 % OF INJECTED DOSE/GRAM OF TISSUE WEIGHT and the Intestine uptake [1, 4] was 0.742 % OF INJECTED DOSE/GRAM OF TISSUE WEIGHT. The Liver uptake [1, 4] was 4.451 % OF INJECTED DOSE/GRAM OF TISSUE WEIGHT, the Muscle uptake [1, 4] was 0.145 % OF INJECTED DOSE/GRAM OF TISSUE WEIGHT and the Uterus uptake [1, 4] was 0.297 % OF INJECTED DOSE/GRAM OF TISSUE WEIGHT. The Blood uptake [1, 5] was 0.033 % OF INJECTED DOSE/GRAM OF TIS, the Bone uptake [1, 5] was 0.653 % OF INJECTED DOSE/GRAM OF TIS and the Intestine uptake [1, 5] was 0.917 % OF INJECTED DOSE/GRAM OF TIS. The Kidney uptake [1, 5] was 0.742 % OF INJECTED DOSE/GRAM OF TIS, the Liver uptake [1, 5] was 4.540 % OF INJECTED DOSE/GRAM OF TIS and the Muscle uptake [1, 5] was 0.151 % OF INJECTED DOSE/GRAM OF TIS. For the same compound, the Uterus uptake [1, 5] was 0.426 % OF INJECTED DOSE/GRAM OF TIS, the Bone uptake ([1]; 2 h, estradiol-primed, listed as [^18 F]fluoro analogue of tamoxifen, 120 min) was 0.65 % OF INJECTED DOSE/GRAM OF TIS and the Blood uptake [1, 6] was 0.033 % OF INJECTED DOSE/GRAM OF TIS. The Bone uptake [1, 6] was 0.644 % OF INJECTED DOSE/GRAM OF TIS, the Intestine uptake [1, 6] was 0.504 % OF INJECTED DOSE/GRAM OF TIS and the Kidney uptake [1, 6] was 0.530 % OF INJECTED DOSE/GRAM OF TIS. For the same compound, the Liver uptake [1, 6] was 3.849 % OF INJECTED DOSE/GRAM OF TIS, the Muscle uptake [1, 6] was 0.109 % OF INJECTED DOSE/GRAM OF TIS and the Uterus uptake [1, 6] was 0.248 % OF INJECTED DOSE/GRAM OF TIS. The Blood uptake [1, 7] was 0.033 % OF INJECTED DOSE/GRAM OF TISSUE WEIGHT, the Bone uptake [1, 7] was 0.644 % OF INJECTED DOSE/GRAM OF TISSUE WEIGHT and the Intestine uptake [1, 7] was 0.504 % OF INJECTED DOSE/GRAM OF TISSUE WEIGHT. For the same compound, the Kidney uptake [1, 7] was 0.530 % OF INJECTED DOSE/GRAM OF TISSUE WEIGHT, the Liver uptake [1, 7] was 3.849 % OF INJECTED DOSE/GRAM OF TISSUE WEIGHT and the Muscle uptake [1, 7] was 0.109 % OF INJECTED DOSE/GRAM OF TISSUE WEIGHT. For the same compound, the Uterus uptake [1, 7] was 0.248 % OF INJECTED DOSE/GRAM OF TISSUE WEIGHT, the Blood uptake [1, 8] was 0.045 % OF INJECTED DOSE/GRAM OF TIS and the Bone uptake [1, 8] was 0.802 % OF INJECTED DOSE/GRAM OF TIS. The Intestine uptake [1, 8] was 1.101 % OF INJECTED DOSE/GRAM OF TIS, the Kidney uptake [1, 8] was 0.796 % OF INJECTED DOSE/GRAM OF TIS and the Liver uptake [1, 8] was 4.205 % OF INJECTED DOSE/GRAM OF TIS. The Muscle uptake [1, 8] was 0.183 % OF INJECTED DOSE/GRAM OF TIS, the Uterus uptake [1, 8] was 0.400 % OF INJECTED DOSE/GRAM OF TIS and the Bone uptake ([1]; 4 h, estradiol-primed, listed as [^18 F]fluoro analogue of tamoxifen, 240 min) was 0.80 % OF INJECTED DOSE/GRAM OF TIS. For the same compound, the “Time to clearance from the blood stream” value (uterus and ovaries; 10 mCi i.v., pig) was no more than 10 min, the “Uterus/ovary uptake in PET image (in words)” value (shortened to “Uterus/ovary uptake”) (uterus and ovaries; 10 mCi i.v.) was “increased uptake could be blocked after pretreatment with DES” and the “Uterus/ovary uptake” value (uterus and ovaries; 10 mCi i.v., listed as 18 F-tamoxifen) was “can be blocked with DES”. The “Uterus/ovary uptake” value (uterus and ovaries; 10 mCi i.v., listed as 18 F-tracer) was “increased uptake could be blocked after pretreatment with diethylstilbestrol” and the “Target organ binding (in words)” value (uterus and ovaries; 30 minutes to 2 hours post-administration, pig) was “constant”.
With `CCN(CC)CCOc1ccc(/C(=C(/CCC[131I])c2ccccc2)c2ccccc2)cc1` [^131 I-IODOTAMOXIFEN] the Tumor uptake ([2]; 1 h, listed as 131 I-Iodo Analogue of Tamoxifen, 60 min) was 0.303 ± 0.0333 % injected dose/gram tissue, the Tumor uptake ([2]; 3 h, listed as 131 I-Iodo Analogue of Tamoxifen, 180 min) was 0.422 ± 0.0389 % injected dose/gram tissue and the Tumor uptake ([2]; 6 h, listed as 131 I-Iodo Analogue of Tamoxifen, 360 min) was 0.479 ± 0.1065 % injected dose/gram tissue. The Tumor uptake ([2]; 24 h, listed as 131 I-ITX, 1440 min) was 0.397±0.1231 % injected dose/gram tissue, the Tumor uptake ([2]; 24 h, listed as 131 I-Iodo Analogue of Tamoxifen, 1440 min) was 0.397 % injected dose/gram tissue and the tissue uptake at 1 h ([2]; blood, 10 uCi/rat, 1 h, read-out: Blood uptake) was 0.155 ± 0.004 %ID/g. For the same compound, the tissue uptake at 3 h ([2]; blood, 10 uCi/rat, 3 h, read-out: Blood uptake) was 0.12 ± 0.0137 %ID/g, the tissue uptake at 6 h ([2]; blood, 10 uCi/rat, 6 h, read-out: Blood uptake) was 0.086 ± 0.0018 %ID/g and the tissue uptake at 24 h ([2]; blood, 10 uCi/rat, 24 h, read-out: Blood uptake) was 0.036 ± 0.0001 %ID/g. It also gave a tissue uptake at 1 h ([2]; kidney, 10 uCi/rat, 1 h, read-out: Kidney uptake) of 1.3 ± 0.0839 %ID/g, a tissue uptake at 3 h ([2]; kidney, 10 uCi/rat, 3 h, read-out: Kidney uptake) of 1.49 ± 0.107 %ID/g and a tissue uptake at 6 h ([2]; kidney, 10 uCi/rat, 6 h, read-out: Kidney uptake) of 1.39 ± 0.116 %ID/g. The tissue uptake at 24 h ([2]; kidney, 10 uCi/rat, 24 h, read-out: Kidney uptake) was 0.573 %ID/g, the tissue uptake at 1 h ([2]; liver, 10 uCi/rat, 1 h, read-out: Liver uptake) was 6.746 ± 0.0546 %ID/g and the tissue uptake at 3 h ([2]; liver, 10 uCi/rat, 3 h, read-out: Liver uptake) was 6.73 ± 0.122 %ID/g. For the same compound, the tissue uptake at 6 h ([2]; liver, 10 uCi/rat, 6 h, read-out: Liver uptake) was 4.67 ± 0.461 %ID/g, the tissue uptake at 24 h ([2]; liver, 10 uCi/rat, 24 h, read-out: Liver uptake) was 2.71 %ID/g and the tissue uptake at 1 h ([2]; lung, 10 uCi/rat, 1 h, read-out: Lung uptake) was 2.83 ± 0.14 %ID/g. It also gave a tissue uptake at 3 h ([2]; lung, 10 uCi/rat, 3 h, read-out: Lung uptake) of 3.04 ± 0.411 %ID/g, a tissue uptake at 6 h ([2]; lung, 10 uCi/rat, 6 h, read-out: Lung uptake) of 3.06 ± 0.458 %ID/g and a tissue uptake at 24 h ([2]; lung, 10 uCi/rat, 24 h, read-out: Lung uptake) of 1.12 %ID/g. It also gave a tissue uptake at 1 h ([2]; muscle, 10 uCi/rat, 1 h, read-out: Muscle uptake) of 0.214 ± 0.0176 %ID/g, a tissue uptake at 3 h ([2]; muscle, 10 uCi/rat, 3 h, read-out: Muscle uptake) of 0.242 ± 0.187 %ID/g and a tissue uptake at 6 h ([2]; muscle, 10 uCi/rat, 6 h, read-out: Muscle uptake) of 0.253 ± 0.0208 %ID/g. The tissue uptake at 24 h ([2]; muscle, 10 uCi/rat, 24 h, read-out: Muscle uptake) was 0.114 %ID/g, the tissue uptake at 1 h ([2]; tumor, 1 h, read-out: Tumor uptake) was 0.3 ± 0.033 %ID/g and the tissue uptake at 3 h ([2]; tumor, 3 h, read-out: Tumor uptake) was 0.42 %ID/g. For the same compound, the tissue uptake at 6 h ([2]; tumor, 6 h, read-out: Tumor uptake) was 0.48 ± 0.107 %ID/g, the tissue uptake at 24 h ([2]; tumor, 24 h, read-out: Tumor uptake) was 0.4 ± 0.123 %ID/g and the tissue uptake at 1 h ([2]; uterus, 10 uCi/rat, 1 h, read-out: Uterus uptake) was 0.334 ± 0.0485 %ID/g. The tissue uptake at 3 h ([2]; uterus, 10 uCi/rat, 3 h, read-out: Uterus uptake) was 0.4 ± 0.132 %ID/g, the tissue uptake at 6 h ([2]; uterus, 10 uCi/rat, 6 h, read-out: Uterus uptake) was 0.559 ± 0.0982 %ID/g and the tissue uptake at 24 h ([2]; uterus, 10 uCi/rat, 24 h, read-out: Uterus uptake) was 0.335 %ID/g.

— patent US6096874A (Board of Regents, the University of Texas System, priority 1995, dated 2000)
